Experimental data taken from US9133154B2, “Substituted 3-phenylpropylamine derivatives for the treatment of ophthalmic diseases and disorders” (Acucela Inc., priority 2013, dated 2015).
Entries after “also recorded” stand apart in the source; their conditions may differ. Like-named read-outs stand apart in the source and are kept apart here. Blank lines part the entries; values can stand above or below the molecule they belong to.

Legend:
[1] = tested on: isomerase (recovery of 11-cis-retinal after bleaching); experiment: In vivo murine isomerase assay; settings: mice, oral gavage
Method: The capability of compounds described herein to inhibit isomerase was determined by an in vivo murine isomerase assay. […] The recovery of 11-cis-retinal after bleaching can be used to estimate the activity of isomerase in vivo. Delayed recovery, as represented by lower 11-cis-retinal oxime levels, indicates inhibition of isomerization reaction.
Mice were gavaged with the test compound. […] The mice were allowed to recover 2 hours in the dark. The animals were then sacrificed by carbon dioxide inhalation. Retinoids were extracted from the eye and the regeneration of 11-cis-retinal was assessed at various time intervals.
After the mice were sacrificed, the eyes were immediately removed and placed in liquid nitrogen for storage.
The eyes were placed in 500 μL of bis-tris propane buffer (10 mM, pH˜7.3) and 20 μL of 0.8M hydroxile amine (pH˜7.3). The eyes were cut up into small pieces with small iris scissors and then thoroughly homogenized at 30000 rpm with a mechanical homogenizer (Polytron PT 1300 D) in the tube until no visible tissue remained. 500 μL of methanol and 500 μL of heptane were added to each tube. The tubes were attached to a vortexer so that the contents were mixed thoroughly for 15 minutes in room temperature. The organic phase was separated from the aqueous phase by centrifugation for 10 min at 13K rpm, 4° C. 240 μL of the solution from the top layer (organic phase) was removed and transferred to clean 300 μl glass inserts in HPLC vials using glass pipette and the vials were crimped shut tightly.
The samples were analyzed on an Agilent 1100 HPLC system with normal phase column: SILICA (Beckman Coutlier, dp 5 μm, 4.6 mM×250 mM). […] Loading volume for each sample was 100 μA detection wavelength was 360 nm. The area under the curve for 11-cis retinal oxime was calculated by Agilent Chemstation software and was recorded manually. Data processing was performed using Prizm software.
Positive control mice (no compound administered) were sacrificed fully dark-adapted and the eye retinoids analyzed. Light (bleached) control mice (no compound administered) were sacrificed and retinoids isolated and analyzed immediately after light treatment.
A time course study was performed to determine the isomerase inhibitory activity of the test compound. […] The animals were then “photo-bleached” (5000 Lux white light for 10 minutes) at 2, 4, 8, 16 and 24 hours after dosing, and returned to darkness to allow recovery of the 11-cis-retinal content of the eyes. Mice were sacrificed 2 hours after bleaching, eyes were enucleated, and retinoid content is analyzed by HPLC.
Recovery control mice (vehicle-only treated) were light-treated and left to recover for 2 hours in the dark before sacrifice and analysis. Light control mice (vehicle only treated) were sacrificed for analysis immediately after photo-bleaching.
An in vivo dose response isomerase inhibition study was performed with test compound. […] Recovery and retinoid analysis were performed as described above. Dark control mice were vehicle-only treated, sacrificed fully dark adapted without light treatment, and analyzed. Recovery control mice and light control mice were included in the study as per the initial phase.

[2] = molecular target: T1, recombinant human RPE65 and LRAT (visual cycle isomerase) (Homo sapiens, UniProt Q16518); experiment: Human in vitro isomerase inhibition assay; settings: comparison compounds
T1 sequence (Q16518 2-533): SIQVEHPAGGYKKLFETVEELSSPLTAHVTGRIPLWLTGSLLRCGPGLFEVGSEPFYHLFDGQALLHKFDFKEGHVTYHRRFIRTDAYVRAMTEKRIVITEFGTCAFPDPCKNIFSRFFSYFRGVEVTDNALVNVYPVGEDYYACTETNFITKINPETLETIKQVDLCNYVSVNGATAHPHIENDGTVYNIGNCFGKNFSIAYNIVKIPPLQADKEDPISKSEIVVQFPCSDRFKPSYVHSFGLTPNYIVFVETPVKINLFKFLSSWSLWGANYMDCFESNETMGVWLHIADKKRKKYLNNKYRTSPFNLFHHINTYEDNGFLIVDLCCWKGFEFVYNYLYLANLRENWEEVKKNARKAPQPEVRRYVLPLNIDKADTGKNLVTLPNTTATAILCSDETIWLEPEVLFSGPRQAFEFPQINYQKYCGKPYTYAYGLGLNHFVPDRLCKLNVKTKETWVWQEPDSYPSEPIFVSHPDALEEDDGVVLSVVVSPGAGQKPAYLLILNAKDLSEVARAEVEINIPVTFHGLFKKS

[3] = tested on: regeneration of 11-cis-retinal; experiment: Single dose time course in the in vivo isomerase assay at 0.3 mg/kg; design: species or system BALB/c mice; settings: BALB/c mice, single oral 0.3 mg/kg; for activity at 0.3 mg/kg: Mus musculus, read-out: Percent Control (Avg. % Inhibition)
Method: (§1) All test compounds were stored at room temperature, dessicated.
The compounds were dissolved in di-water at the concentration of 0.068 mg/mL and stored overnight at 4° C.
52 Male BALB/c mice (Charles River Laboratories) were used for this study. The mice were approximately 8 weeks at the initiation of dosing with an average body weight of 23 grams.
The day prior to dose administration 52 BALB/c mice were placed into a dark room and dark adapted for a minimum of 12 hours prior to dose administration. The mice were maintained in the dark for the duration of the study.
(§2) Each animal was removed from its cage and dosed accordingly to the study design in Table 10 (see below). Each animal was administered 0.1 mL of the appropriate test article or vehicle orally using a 1 mL syringe fitted with a 23 gauge oral gavage needle. At 2, 4, 6, 8, 16 or 24 hours following dose administration, animals were removed from the dark and exposed to 5000 Lux white light for 10 minutes to photobleach their eyes. Following the completion of the photobleach the animals were returned to the dark for 2 hours to allow for the regeneration of 11-cis-retinal in the eyes. Two hours after photobleaching each animal was euthanized with carbon dioxide followed by cervical dislocation, in the dark under red light. The light control group was euthanized immediately following photobleaching. Immediately following the cervical dislocation both eyes of each animal were removed and transferred into separate tubes, flash frozen in liquid nitrogen and stored in the dark at −80° C. until processing and analysis.
(§3) All sample processing procedures were performed in the dark under red light.
Extracted samples were analyzed using an Agilent 1100 HPLC system according to the procedure outlined in Table 12 (see below)
(§4) HPLC analysis of the eyes measures the peak area units of the 110cis-Ral-Oxime_syn. Signal.
(§5) Data analysis % inhibition (drug vs. recovery control). % control (drug vs. light control), and One-way ANOVA (followed by Tukey's Multiple Comparison) were performed using peak area units and performed by Prism software. Data are represented as mean and standard deviation.

[4] = tested on: retinal isomerase activity (recovery of 11-cis-retinal); experiment: Comparative in vivo murine isomerase assay, dose response; design: species or system BALB/c mice; settings: BALB/c mice, 2 hours; for Avg. % Inhibition: 11-cis-retinal, drug vs. recovery control
Method: as §1
On the day prior to dose administration compound A and compound D were weighed into new empty glass vials. The compounds were dissolved in di-water at the concentration of 0.833 mg/mL compound A and 0.892 mg/mL compound D, serially diluted into various concentrations, and stored overnight at 4° C.
56 Male BALB/c mice (Charles River Laboratories) were used for this study. The mice were approximately 8 weeks at the initiation of dosing with an average body weight of 24 grams.
The day prior to dose administration 56 BALB/c mice were placed into a dark room and dark adapted for a minimum of 12 hours prior to dose administration. The mice were maintained in the dark for the duration of the study.
as §2, with “Table 4” for “Table 10”, “appropriate compound” for “appropriate test article”, “vehicle via oral gavage” for “vehicle orally”, “needle. Two” for “needle. At 2, 4, 6, 8, 16 or 24”
as §3
Extracted samples were analyzed using an Agilent 1100 HPLC system according to the procedure outlined in Table 6 (see below)
as §4, §5

SMILES: NCC[C@@H](O)c1cccc(OCC2CCCOC2)c1 (mixture of isomers) [Example 3, (1R)-3-Amino-1-(3-((tetrahydro-2H-pyran-3-yl)methoxy)phenyl)propan-1-ol]
% Inhibition ([1]; dose 0.3 mg/kg, time 2 h): 75.1%

IC50 [2]: 6.3 nM
SMILES: NCC[C@@H](O)c1cccc(NCC2CCCCC2)c1

IC50 [2]: 24 nM | IC50 (dose response experiment) ([4]; single oral dose): 0.59 mg/kg
SMILES: NCCC(O)c1cccc(OCC2CCCCO2)c1 (stereo not shown) [compound D, reference compound]
significance of inhibitory effect on the recovery of 11-cis-retinal vs. recovery control ([3]; 2, 4, 6, 8, 16 and 24 hours, 0.3 mg/kg): not a statistically significant difference, P>0.05 for any time points; also recorded: no significant inhibitory effect at any time points; also recorded: did not exhibit a significant difference from the control group at any time point | activity at 0.3 mg/kg ([3]; time point 2 hours): 86.8% | activity at 0.3 mg/kg ([3]; time point 4 hours): 102% | activity at 0.3 mg/kg ([3]; time point 6 hours): 87.9% | activity at 0.3 mg/kg ([3]; time point 8 hours): 94.6% | activity at 0.3 mg/kg ([3]; time point 16 hours): 104% | activity at 0.3 mg/kg ([3]; time point 24 hours): 89.5% | Avg. % Inhibition ([4]; oral 0.3 mg/kg, 0.3 mg/kg): no inhibition | Avg. % Inhibition ([4]; oral 3 mg/kg, 3 mg/kg): same level of inhibition | significance of inhibitory effect on the recovery of 11-cis-retinal vs. recovery control ([4]; single oral dose 0.03-3 mg/kg): statistically significant difference, P<0.001 for 1 and 3 mg/kg dose levels; also recorded: significant inhibitory effect at 1 mg/kg and 3 mg/kg dose levels | dose at which 11-cis-retinal recovery was inhibited by 50% ([4]; single oral dose): 0.59 mg/kg

SMILES: COC(=O)N1CCC(COc2cccc([C@H](O)CCN)c2)CC1 [Example 17, (R)-Methyl 4-((3-(3-amino-1-hydroxypropyl)phenoxy)methyl)piperidine-1-carboxylate]
% Inhibition ([1]; dose 1 mg/kg, time 4 h): 85%
